Laboratory results reported in patent US10662164B2, “Non-beta lactam antibiotics” (University of Notre Dame du Lac, priority 2014, dated 2020).
In brackets after ≈: the same amount, converted by molar mass. Where two headings read alike, the source gives them in different places.

Assays:
[1] = tested on: B. cereus ATCC 13061; assay: MIC determination; assay type: cell-based; conditions: Bacillus cereus, ATCC13061
From the text: (§1) The ESKAPE organisms (E. faecium NCTC (ATCC 19734), S. aureus ATCC 29213, K. pneumonia ATCC 700603, A. baumannii ATCC 17961, P. aeruginosa ATCC 17853, E. aerogenes ATCC 35029) and E. coli ATCC 25922) in the initial screen, S. aureus ATCC 27660, S. epidermis ATCC 35547, S. haemolyticus ATCC 29970, S. oralis ATCC 9811, S. pyogenes ATCC 49399, B. cereus ATCC 13061, B. licheniformis ATCC 12759, and E. faecalis ATCC 29212 were purchased from the American Type Culture Collection (Manassas, Va., USA). S. aureus strains NRS100, NRS119, NRS120, VRS1, and VRS2 were obtained from the Network on Antimicrobial Resistance in Staphylococcus aureus (Chantilly, Va., USA). E. faecalis strains 201 and 99, and E. faecium strains 119-39A and 106 were collected from Wayne State University School of Medicine.
(§2) The procedure for MIC determination was the same as previously reported (Tran et al., Am. J. Clin. Dermatol. 2015; doi 10.1007/S40257-015-0125-9).

[2] = tested on: S. aureus NRS100 (COL); assay: MIC determination; assay type: cell-based; conditions: Staphylococcus aureus
From the text: as §1, §2

[3] = tested on: S. aureus VRS1; assay: MIC determination; assay type: cell-based; conditions: Staphylococcus aureus
From the text: as §1, §2

[4] = tested on: S. epidermis ATCC 35547; assay: MIC determination; assay type: cell-based
From the text: as §1, §2

[5] = tested on: S. haemolyticus ATCC 29970; assay: MIC determination; assay type: cell-based; conditions: Staphylococcus haemolyticus, ATCC29970
From the text: as §1, §2

[6] = tested on: S. oralis ATCC 9811; assay: MIC determination; assay type: cell-based; conditions: Streptococcus oralis, ATCC9811
From the text: as §1, §2

[7] = tested on: S. pyogenes ATCC 49399; assay: MIC determination; assay type: cell-based; conditions: Streptococcus pyogenes, ATCC49399
From the text: as §1, §2

[8] = tested on: E. faecium NCTC 7171; assay: MIC determination; assay type: cell-based, Enterococcus faecium; conditions: Enterococcus faecium
[9] = Plasma protein binding, equilibrium dialysis; conditions: 10 μM, 37° C., 6 h
Protocol: Protein binding for compounds 60b, 60c, 65b, 66b, 75b and 76b was determined in human plasma using equilibrium dialysis.
Plasma protein binding was determined using human plasma and a rapid equilibrium dialysis device (Pierce Biotechnology, Thermo Scientific, Waltham, Mass., USA). Human plasma was thawed and centrifuged at 1200 g for 10 min to remove particulates. A […] aliquot of human plasma was added to the sample chamber and 350 μL of 0.1 M phosphate buffered saline (pH 7.4) containing […] sodium chloride was added to the adjacent chamber. A 2-μL aliquot of a stock solution of the compounds at a concentration of 1 mM in DMSO was diluted with human plasma to a final drug concentration of 10 μM and added to the sample chamber. The compounds were dialyzed at 37° C. in an orbital shaker for 6 h. Aliquots (50 μL) were taken from the buffer chamber (representing the free concentration) and from the plasma chamber (representing the total concentration) and mixed with 100 μL of internal standard in acetonitrile to a final concentration of 5 μM. Samples were analyzed by UPLC with UV detection at 285 nm. The plasma protein binding ratio (B %) was calculated according to the following equation: B%=(Cp−Cf)/Cp×100 where Cp and Cf are the total plasma concentration and the free concentration of compound, respectively.

[10] = tested on: HepG2 cells; assay: XTT cytotoxicity assay; assay type: cell-based; conditions: for IC50: Homo sapiens
Protocol: We used the XTT assay with HepG2 cells to evaluate the in vitro toxicity of compounds 60b, 60c, 65b, 66b, 75b and 76b (Table 2). […] Compared to the lead 1, indole 75b was 5-fold less toxic.
The XTT cytotoxicity assay was performed in triplicated using HepG2 cells (ATCC HB-8065), as previously described (Tran et al., Am. J. Clin. Dermatol. 2015; doi 10.1007/S40257-015-0125-9). The IC50 values were calculated with GraphPad Prism 5 (GraphPad Software, Inc., San Diego, Calif., USA).

[11] = mecA positive, resistant to methicillin, oxacillin, tetracycline, Tables 1 and 5, read-out: MIC
[12] = vancomycin-resistant MRSA (vanA) isolate from Michigan, Tables 1 and 5, read-out: MIC
[13] = NCTC7171, Table 1, read-out: MIC
[14] = NCTC7171, Table 3.1, compounds of Schemes 2-4, read-out: E. faecium NCTC 7171 MIC
[15] = HepG2 cells, cytotoxicity, read-out: XTT HepG2 IC50

Which MIC ([1]; Tables 1 and 5, read-out: MIC) does the source give for `Oc1ccc(-c2nc(-c3ccc(Oc4ccc(C(F)(F)F)cc4)cc3)no2)cc1` [Compound 1] here?
The MIC was 2 µg/mL (≈ 5.02 µM).

And the MIC [2, 11]?
The MIC was 2 µg/mL (≈ 5.02 µM).

And the MIC [3, 12]?
The MIC was 2 µg/mL (≈ 5.02 µM).

What about the MIC ([4]; Tables 1 and 5, read-out: MIC) of the same compound?
The MIC was 2 µg/mL (≈ 5.02 µM).

And the MIC ([5]; Tables 1 and 5, read-out: MIC)?
Its MIC is 2 µg/mL (≈ 5.02 µM).

What about the MIC ([6]; Table 1, read-out: MIC) of the same compound?
The MIC was 32 µg/mL (≈ 80.3 µM).

What about the MIC ([7]; Table 1, read-out: MIC) of the same compound?
Its MIC is 32 µg/mL (≈ 80.3 µM).

What about the MIC [8, 13] of the same compound?
The MIC was 2 µg/mL (≈ 5.02 µM).

What about the MIC [8, 14] of the same compound?
Its MIC is 1 µg/mL (≈ 2.51 µM).

What about the “Human plasma protein binding” value [9] of the same compound?
Its value is 99.9 ± 0.1%.

And the IC50 [10, 15]?
The IC50 was 25.8 µg/mL (≈ 64.8 µM).

Which results are given for `FC(F)(F)c1ccc(Oc2ccc(-c3noc(-c4n[nH]cc4Cl)n3)cc2)cc1` [Compound 60b, 5-(4-Chloro-1H-pyrazol-3-yl)-3-(4-(4-(trifluoromethyl)phenoxy)phenyl)-1,2,4-oxadiazole]?
MIC ([1]; Tables 1 and 5, read-out: MIC): > 128 µg/mL; MIC [2, 11]: > 128 µg/mL; MIC [3, 12]: 1 to 2 µg/mL (≈ 2.46 to 4.92 µM); MIC ([4]; Tables 1 and 5, read-out: MIC): > 128 µg/mL; MIC ([5]; Tables 1 and 5, read-out: MIC): > 128 µg/mL; MIC ([6]; Table 1, read-out: MIC): > 128 µg/mL; MIC ([7]; Table 1, read-out: MIC): > 128 µg/mL; MIC [8, 13]: 16 µg/mL (≈ 39.3 µM); MIC [8, 14]: 2 µg/mL (≈ 4.92 µM); Human plasma protein binding [9]: 97.8 ± 0.3%; IC50 [10, 15]: 24.1 ± 1.6 µg/mL (≈ 59.3 µM)

What does the source list for `Fc1ccc(Oc2ccc(-c3noc(-c4n[nH]cc4Cl)n3)cc2)cc1` [Compound 60c, 5-(4-Chloro-1H-pyrazol-3-yl)-3-(4-(4-fluorophenoxy)phenyl)-1,2,4-oxadiazole]?
MIC ([1]; Tables 1 and 5, read-out: MIC): > 128 µg/mL; MIC [2, 11]: > 128 µg/mL; MIC [3, 12]: 1 µg/mL (≈ 2.8 µM); MIC ([4]; Tables 1 and 5, read-out: MIC): > 128 µg/mL; MIC ([5]; Tables 1 and 5, read-out: MIC): > 128 µg/mL; MIC ([6]; Table 1, read-out: MIC): > 128 µg/mL; MIC ([7]; Table 1, read-out: MIC): > 128 µg/mL; MIC [8, 13]: 32 µg/mL (≈ 89.7 µM); MIC [8, 14]: 8 µg/mL (≈ 22.4 µM); Human plasma protein binding [9]: 94.5 ± 2.1%; IC50 [10, 15]: 18.2 ± 2.9 µg/mL (≈ 51 µM)

Which results are given for `CC(C)Nc1c[nH]nc1-c1nc(-c2ccc(Oc3ccc(C(F)(F)F)cc3)cc2)no1` [Compound 65b, N-Isopropyl-3-(3-(4-(4-(trifluoromethyl)phenoxy)phenyl)-1,2,4-oxadiazol-5-yl)-1H-pyrazol-4-amine]?
MIC [1]: > 128 µg/mL; MIC [2]: > 128 µg/mL; MIC ([3]; MRSA): 1 µg/mL (≈ 2.33 µM); MIC [4]: > 128 µg/mL; MIC [5]: > 128 µg/mL; MIC [6]: > 128 µg/mL; MIC [7]: > 128 µg/mL; MIC ([8]; NCTC7171): 32 µg/mL (≈ 74.5 µM); MIC ([8]; NCTC7171, read-out: E. faecium NCTC 7171 MIC): > 128 µg/mL; Human plasma protein binding [9]: 91.6 ± 0.3%; IC50 ([10]; HepG2, read-out: XTT HepG2 IC50): 3.9 ± 0.8 µg/mL (≈ 9.08 µM)

What does the source list for `C#Cc1c[nH]nc1-c1nc(-c2ccc(Oc3ccc(C(F)(F)F)cc3)cc2)no1` [Compound 66b, 5-(4-Ethynyl-1H-pyrazol-3-yl)-3-(4-(4-(trifluoromethyl)phenoxy)phenyl)-1,2,4-oxadiazole]?
MIC ([1]; Tables 1 and 5, read-out: MIC): > 128 µg/mL; MIC [2, 11]: > 128 µg/mL; MIC [3, 12]: 1 µg/mL (≈ 2.52 µM); MIC ([4]; Tables 1 and 5, read-out: MIC): > 128 µg/mL; MIC ([5]; Tables 1 and 5, read-out: MIC): > 128 µg/mL; MIC ([6]; Table 1, read-out: MIC): > 128 µg/mL; MIC ([7]; Table 1, read-out: MIC): > 128 µg/mL; MIC [8, 14]: > 128 µg/mL; Human plasma protein binding [9]: 96.4 ± 2.7%; IC50 [10, 15]: 9.8 ± 4 µg/mL (≈ 24.7 µM)

With `FC(F)(F)c1ccc(Oc2ccc(-c3noc(-c4ccc5[nH]ccc5c4)n3)cc2)cc1` [Compound 75b, 5-(1H-Indol-5-yl)-3-(4-(4-(trifluoromethyl)phenoxy)phenyl)-1,2,4-oxadiazole] as the compound, how does the MIC ([1]; Tables 1 and 5, read-out: MIC) read?
The MIC was 16 µg/mL (≈ 38 µM).

What about the MIC [3, 12] of the same compound?
Its MIC is 1 µg/mL (≈ 2.37 µM).

And the MIC ([5]; Tables 1 and 5, read-out: MIC)?
The MIC was 8 µg/mL (≈ 19 µM).

What about the MIC ([6]; Table 1, read-out: MIC) of the same compound?
The MIC was 128 µg/mL (≈ 304 µM).

What about the MIC ([7]; Table 1, read-out: MIC) of the same compound?
Its MIC is 64 µg/mL (≈ 152 µM).

What about the MIC [8, 13] of the same compound?
Its MIC is 2 to 4 µg/mL (≈ 4.75 to 9.49 µM).

What about the MIC [8, 14] of the same compound?
The MIC was 2 µg/mL (≈ 4.75 µM).

What about the “Human plasma protein binding” value [9] of the same compound?
The value was 98.2±3.2%.

And the IC50 [10, 15]?
Its IC50 is 75.7 ± 7.3 µg/mL (≈ 180 µM).

What about the “fold less toxic than the lead 1” value ([10]; XTT assay, HepG2 cells) of the same compound?
The value was 5 fold.

Which MIC [2, 11] does the source give for `FC(F)(F)c1ccc(Oc2ccc(-c3noc(-c4c[nH]cn4)n3)cc2)cc1` [Compound 76b, 5-(1H-Imidazol-4-yl)-3-(4-(4-(trifluoromethyl)phenoxy)phenyl)-1,2,4-oxadiazole] here?
The MIC was 32 µg/mL (≈ 86 µM).

What about the MIC [3, 12] of the same compound?
The MIC was 1 µg/mL (≈ 2.69 µM).

And the MIC ([4]; Tables 1 and 5, read-out: MIC)?
The MIC was 32 µg/mL (≈ 86 µM).

And the MIC ([5]; Tables 1 and 5, read-out: MIC)?
Its MIC is 16 µg/mL (≈ 43 µM).

What about the MIC ([6]; Table 1, read-out: MIC) of the same compound?
Its MIC is > 128 µg/mL.

And the MIC ([7]; Table 1, read-out: MIC)?
The MIC was 128 µg/mL (≈ 344 µM).

And the MIC [8, 13]?
The MIC was 8 to 16 µg/mL (≈ 21.5 to 43 µM).

What about the MIC [8, 14] of the same compound?
Its MIC is 4 µg/mL (≈ 10.7 µM).

And the “Human plasma protein binding” value [9]?
Its value is 93.5 ± 2.4%.

What about the IC50 [10, 15] of the same compound?
Its IC50 is 31.5 ± 0.5 µg/mL (≈ 84.6 µM).
